Values after ≈ are worked out from the molar mass of the structure shown. Like-named read-outs stand apart in the source and are kept apart here.
System: C. difficile strains
Assay: MIC (microdilution) against panel of 101 C. difficile strains
Format: cell-based, Clostridioides difficile
[1] = C. difficile strains of Table 4

SMILES: O=[N+]([O-])c1cnc(-c2nc(-c3ccc(OC4CCCC4)cc3)no2)[nH]1 [Compound 57, 3-(4-(Cyclopentyloxy)phenyl)-5-(4-nitro-1H-imidazol-2-yl)-1,2,4-oxadiazole]
- IMIC50 (101 strains) (101 C. difficile strains): 0.5 µg/mL
- MIC50 [1]: 0.5 µg/mL (≈ 1.46 µM)
- MIC90 [1]: 1 µg/mL (≈ 2.93 µM)
- MIC (Clostridioides difficile, ATCC43598, strain ATCC43598): 0.5 µg/mL (≈ 1.46 µM)
- MIC (Clostridioides difficile, BAA1801, strain BAA-1801): 0.25 µg/mL (≈ 0.732 µM)
- MIC (Clostridioides difficile, BAA1804, strain BAA-1804): 0.125 µg/mL (≈ 0.366 µM)
- MIC (Clostridioides difficile, BAA1812, strain BAA-1812): 0.125 µg/mL (≈ 0.366 µM)
- MIC (Clostridioides difficile, BAA1814, strain BAA-1814): 0.125 µg/mL (≈ 0.366 µM)
- MIC (Clostridioides difficile, BAA1870, strain BAA-1870): 0.125 µg/mL (≈ 0.366 µM)
- MIC (Clostridioides difficile, C. difficile 24531, resistant to VAN): 0.125 µg/mL (≈ 0.366 µM)
- MIC (Clostridioides difficile, C. difficile NR49292): 0.125 µg/mL (≈ 0.366 µM)
- MIC (Clostridioides difficile, C. difficile NR49302): 0.25 µg/mL (≈ 0.732 µM)
- MIC (Clostridioides difficile, C. difficile NR49305): 0.125 µg/mL (≈ 0.366 µM)
- MIC (Clostridioides difficile, C. difficile NR49310): 0.25 µg/mL (≈ 0.732 µM)
- MIC (Clostridioides difficile, strain HM-88): 1 µg/mL (≈ 2.93 µM)
- MIC (Clostridioides difficile, strain HM-89): 0.5 µg/mL (≈ 1.46 µM)
- MIC (Clostridioides difficile, strain HM-745): 0.5 µg/mL (≈ 1.46 µM)
- MIC (Clostridioides difficile, strain HM-746): 0.5 µg/mL (≈ 1.46 µM)
- MIC (Clostridioides difficile, strain HM-747): 0.25 µg/mL (≈ 0.732 µM)
- MIC (Clostridioides difficile, strain NR49292): 0.125 µg/mL (≈ 0.366 µM)
- MIC (Clostridioides difficile, strain NR49294): 0.5 µg/mL (≈ 1.46 µM)
- MIC (Clostridioides difficile, strain NR49302): 0.25 µg/mL (≈ 0.732 µM)
- MIC (Clostridioides difficile, strain NR49305): 0.125 µg/mL (≈ 0.366 µM)
- MIC (Clostridioides difficile, strain NR49310): 0.25 µg/mL (≈ 0.732 µM)
- MIC (Clostridioides difficile, strain NR49318): 0.5 µg/mL (≈ 1.46 µM)
- MIC (Clostridioides difficile, strain NR-13427): 0.5 µg/mL (≈ 1.46 µM)
- MIC (Clostridioides difficile, strain NR-13428): 0.5 µg/mL (≈ 1.46 µM)
- MIC (Clostridioides difficile, strain NR-13429): 0.5 µg/mL (≈ 1.46 µM)
- MIC (Clostridioides difficile, strain NR-13430): 0.5 µg/mL (≈ 1.46 µM)
- MIC (Clostridioides difficile, strain NR-13431): 0.5 µg/mL (≈ 1.46 µM)
- MIC (Clostridioides difficile, strain NR-13433): 1 µg/mL (≈ 2.93 µM)
- MIC (Clostridioides difficile, strain NR-13434): 0.125 µg/mL (≈ 0.366 µM)
- MIC (Clostridioides difficile, strain NR-13435): 0.5 µg/mL (≈ 1.46 µM)
- MIC (Clostridioides difficile, strain NR-13436): 0.5 µg/mL (≈ 1.46 µM)
- MIC (Clostridioides difficile, strain NR-13437): 0.5 µg/mL (≈ 1.46 µM)
- MIC (Clostridioides difficile, strain NR-13438): 0.25 µg/mL (≈ 0.732 µM)
- MIC (Clostridioides difficile, strain NR-13553): 0.125 µg/mL (≈ 0.366 µM)
- MIC (Clostridioides difficile, strain NR-32882): 0.5 µg/mL (≈ 1.46 µM)
- MIC (Clostridioides difficile, strain NR-32883): 0.5 µg/mL (≈ 1.46 µM)
- MIC (Clostridioides difficile, strain NR-32884): 0.5 µg/mL (≈ 1.46 µM)
- MIC (Clostridioides difficile, strain NR-32885): 0.5 µg/mL (≈ 1.46 µM)
- MIC (Clostridioides difficile, strain NR-32886): 0.5 µg/mL (≈ 1.46 µM)
- MIC (Clostridioides difficile, strain NR-32887): 1 µg/mL (≈ 2.93 µM)
- MIC (Clostridioides difficile, strain NR-32888): 1 µg/mL (≈ 2.93 µM)
- MIC (Clostridioides difficile, strain NR-32889): 1 µg/mL (≈ 2.93 µM)
- MIC (Clostridioides difficile, strain NR-32890): 0.125 µg/mL (≈ 0.366 µM)
- MIC (Clostridioides difficile, strain NR-32891): 0.5 µg/mL (≈ 1.46 µM)
- MIC (Clostridioides difficile, strain NR-32892): 0.25 µg/mL (≈ 0.732 µM)
- MIC (Clostridioides difficile, strain NR-32895): 0.25 µg/mL (≈ 0.732 µM)
- MIC (Clostridioides difficile, strain NR-32896): 0.25 µg/mL (≈ 0.732 µM)
- MIC (Clostridioides difficile, strain NR-32897): 0.25 µg/mL (≈ 0.732 µM)
- MIC (Clostridioides difficile, strain NR-32900): 0.25 µg/mL (≈ 0.732 µM)
- MIC (Clostridioides difficile, strain NR-32903): 0.25 µg/mL (≈ 0.732 µM)
- MIC (Clostridioides difficile, strain NR-32904): 0.125 µg/mL (≈ 0.366 µM)
- MIC (Clostridioides difficile, strain NR-49277): 0.5 µg/mL (≈ 1.46 µM)
- MIC (Clostridioides difficile, strain NR-49278): 0.5 µg/mL (≈ 1.46 µM)
- MIC (Clostridioides difficile, strain NR-49279): 0.5 µg/mL (≈ 1.46 µM)
- MIC (Clostridioides difficile, strain NR-49280): 0.25 µg/mL (≈ 0.732 µM)
- MIC (Clostridioides difficile, strain NR-49281): 0.25 µg/mL (≈ 0.732 µM)
- MIC (Clostridioides difficile, strain NR-49282): 0.5 µg/mL (≈ 1.46 µM)
- MIC (Clostridioides difficile, strain NR-49283): 0.5 µg/mL (≈ 1.46 µM)
- MIC (Clostridioides difficile, strain NR-49284): 0.5 µg/mL (≈ 1.46 µM)
- MIC (Clostridioides difficile, strain NR-49285): 0.5 µg/mL (≈ 1.46 µM)
- MIC (Clostridioides difficile, strain NR-49286): 0.5 µg/mL (≈ 1.46 µM)
- MIC (Clostridioides difficile, strain NR-49287): 0.25 µg/mL (≈ 0.732 µM)
- MIC (Clostridioides difficile, strain NR-49288): 1 µg/mL (≈ 2.93 µM)
- MIC (Clostridioides difficile, strain NR-49289): 1 µg/mL (≈ 2.93 µM)
- MIC (Clostridioides difficile, strain NR-49290): 1 µg/mL (≈ 2.93 µM)
- MIC (Clostridioides difficile, strain NR-49291): 1 µg/mL (≈ 2.93 µM)
- MIC (Clostridioides difficile, strain NR-49293): 0.5 µg/mL (≈ 1.46 µM)
- MIC (Clostridioides difficile, strain NR-49295): 1 µg/mL (≈ 2.93 µM)
- MIC (Clostridioides difficile, strain NR-49296): 1 µg/mL (≈ 2.93 µM)
- MIC (Clostridioides difficile, strain NR-49297): 1 µg/mL (≈ 2.93 µM)
- MIC (Clostridioides difficile, strain NR-49298): 1 µg/mL (≈ 2.93 µM)
- MIC (Clostridioides difficile, strain NR-49299): 1 µg/mL (≈ 2.93 µM)
- MIC (Clostridioides difficile, strain NR-49300): 1 µg/mL (≈ 2.93 µM)
- MIC (Clostridioides difficile, strain NR-49301): 0.5 µg/mL (≈ 1.46 µM)
- MIC (Clostridioides difficile, strain NR-49303): 1 µg/mL (≈ 2.93 µM)
- MIC (Clostridioides difficile, strain NR-49304): 1 µg/mL (≈ 2.93 µM)
- MIC (Clostridioides difficile, strain NR-49306): 0.5 µg/mL (≈ 1.46 µM)
- MIC (Clostridioides difficile, strain NR-49307): 0.5 µg/mL (≈ 1.46 µM)
- MIC (Clostridioides difficile, strain NR-49308): 0.5 µg/mL (≈ 1.46 µM)
- MIC (Clostridioides difficile, strain NR-49309): 0.5 µg/mL (≈ 1.46 µM)
- MIC (Clostridioides difficile, strain NR-49311): 1 µg/mL (≈ 2.93 µM)
- MIC (Clostridioides difficile, strain NR-49312): 0.5 µg/mL (≈ 1.46 µM)
- MIC (Clostridioides difficile, strain NR-49313): 0.5 µg/mL (≈ 1.46 µM)
- MIC (Clostridioides difficile, strain NR-49314): 0.5 µg/mL (≈ 1.46 µM)
- MIC (Clostridioides difficile, strain NR-49315): 0.5 µg/mL (≈ 1.46 µM)
- MIC (Clostridioides difficile, strain NR-49316): 1 µg/mL (≈ 2.93 µM)
- MIC (Clostridioides difficile, strain NR-49317): 1 µg/mL (≈ 2.93 µM)
- MIC (Clostridioides difficile, strain NR-49319): 0.25 µg/mL (≈ 0.732 µM)
- MIC (Clostridioides difficile, strain NR-49320): 0.5 µg/mL (≈ 1.46 µM)
- MIC (Clostridioides difficile, strain NR-49321): 1 µg/mL (≈ 2.93 µM)
- MIC (Clostridioides difficile, strain NR-49323): 0.5 µg/mL (≈ 1.46 µM)
- MIC (Clostridioides difficile, strain NR-49324): 1 µg/mL (≈ 2.93 µM)
- MIC (Clostridioides difficile, strain NR-49325): 0.25 µg/mL (≈ 0.732 µM)
- MIC (Clostridioides difficile, strain NR-49326): 0.5 µg/mL (≈ 1.46 µM)
- MIC (Clostridioides difficile, strain NR-49327): 0.25 µg/mL (≈ 0.732 µM)
- MIC (Clostridioides difficile, strain NR-49328): 2 µg/mL (≈ 5.86 µM)
- MIC (Clostridioides difficile, strain NR-49329): 0.5 µg/mL (≈ 1.46 µM)
- MIC (Clostridioides difficile, strain RMA23691): 1 µg/mL (≈ 2.93 µM)
- MIC (Clostridioides difficile, strain RMA23828): 1 µg/mL (≈ 2.93 µM)
- MIC (Clostridioides difficile, strain RMA24531): 0.125 µg/mL (≈ 0.366 µM)
- MIC (Clostridioides difficile, strain RMA24923): 0.125 µg/mL (≈ 0.366 µM)
- MIC (Clostridioides difficile, strain RMA26675): 2 µg/mL (≈ 5.86 µM)
- MIC (Clostridioides difficile, strain RMA27081): 1 µg/mL (≈ 2.93 µM)
- MIC (Clostridioides difficile, strain RMA27173): 2 µg/mL (≈ 5.86 µM)
- MIC50 (Clostridioides difficile, 101 C. difficile strains, read-out: MIC50): 0.5 µg/mL (≈ 1.46 µM)
- MIC90 (Clostridioides difficile, 101 C. difficile strains, read-out: MIC90): 1 µg/mL (≈ 2.93 µM)
- MIC90 (Clostridioides difficile, 101 C. difficile strains, read-out: MIC90 (101 strains)): 1 µg/mL (≈ 2.93 µM)
